The values that follow come from patent publication US7642265B2, “Benzimidazoles and analogs thereof as antivirals” (Isis Pharmaceuticals, Inc., priority 2002, dated 2010).

The test system of data set [1] is stem IIa region of the HCV IRES (5′-UTR of HCV RNA). Description: Mass spectrometry based binding assay. Conditions: for binding percentage of ligand to target: Table 1, ligand 50 μM, IIa target 2.5 μM.
The nature of data set [2]: Single dose in vivo pharmacokinetic study. Set-up: species or system rats. The conditions noted are these: plasma, rat, single 3.0 mg/kg IV dose, mean; for AUC: iv, 3 mg/kg. On the procedure:
A single dose pharmacokinetic study was performed to investigate the pharmacokinetics of representative compounds. Of particular interest was the ability of the compounds to accumulate in liver, which is the target tissue for HCV chemotherapy as it is the primary reservoir of virus. 3-4 rats per group were administered a single dose (3 mg/kg intravenously, IV or 6 mg/kg orally, PO). Blood samples were taken at 0.25, 0.5, 1, 2, 3, 4, 6, and 8 h timepoints, and pharmacokinetic parameters calculated. Both representative compounds were rapidly distributed to tissues, as evidenced by the high clearance rates and volumes of distribution, and low levels of excretion (ca 10% of total drug in urine and feces at 8 h). Major tissues were examined for presence of drug. […] The tissue accumulation for the IV dose is shown in FIG. 1, as a function of concentration and percent of total administered dose.

SMILES strings stand for the structures. Like-named read-outs stand apart in the source and are kept apart here.

With `Nc1nc2ccccc2n1CCCN1CCCC1`, the “binding percentage of ligand to target” value in data set [1] is reported as 15%.

For the compound `CCN(CC)CCn1c(N)nc2ccccc21`, in data set [1], the “binding percentage of ligand to target” value amounted to 15%.

Take `CN(C)CCn1c(N)nc2ccccc21`: the “binding percentage of ligand to target” value in data set [1] came out at 11%.

As to `Nc1nc2ccccc2n1CCOc1ccccc1`, the “binding percentage of ligand to target” value in data set [1] was determined as 6%.

The compound `COc1ccc2nc(N)n(CCCN(C)C)c2c1` displayed an MS target selectivity in data set [1] (Table 2) of roughly 10.

`CN(C)CCCOc1ccc2nc(N)[nH]c2c1`: the “MS target selectivity” value in data set [1] (Table 3) is roughly 2.

On to `CN(C)CCCn1c(N)nc2ccc(OCCCN(C)Cc3ccco3)cc21` [IBIS00405678], for which the MRT in data set [2] was determined as 3.1 h. The half-life in data set [2] was 37.5 h. Also, the AUC in data set [2] (read-out: AUC) turned out to be 311 ng·h/mL; in data set [2] (read-out: AUC Extrap), 1930 ng·h/mL.

On to `CN(C)CC1CNc2nc3ccc(OCCCN(C)Cc4ccccn4)cc3n2C1` (stereo not shown) [IBIS00528637], for which, in data set [2], the MRT turned out to be 2 h. Further, the half-life in data set [2] is 14 h. The results for the AUC in data set [2] (read-out: AUC) and in data set [2] (read-out: AUC Extrap) were 165 ng·h/mL and 320 ng·h/mL, respectively.

In the case of `CN(C)CCCn1c(N)nc2ccccc21` [drawing 73], in data set [1], the “binding percentage of ligand to target” value worked out at 56% binding.

In turn, `CN(C)CCCn1c(N)nc2ccccc21` [drawing 78] returned an MS target selectivity in data set [1] (Table 2) of roughly 3.

In data set [1] (Table 2), `CN(C)CCCOc1ccc2nc(N)n(CCCN(C)C)c2c1` [drawing 80] yielded an MS target selectivity of roughly 15.

Take `CN(C)CCCOc1ccc2nc(N)n(CCCN(C)C)c2c1` [drawing 81]: the “MS target selectivity” value in data set [1] (Table 3) is recorded as roughly 15.

For `CN(C)CCCn1c(N)nc2ccccc21` [drawing 82], the “MS target selectivity” value in data set [1] (Table 3) is reported as roughly 3.

For orientation: MRT means the average time that molecules of a dose stay in the body. Broadly, the half-life is the time in which the quantity being followed falls by half. As usually defined, the AUC is the area under the concentration-time curve, a measure of exposure.
